One compound from ChEMBL document CHEMBL3817761, “Chenopodium album metabolites act as dual topoisomerase inhibitors and induce apoptosis in the MCF7 cell line” (Medchemcomm, 2016) can be followed below.

Molecules are shown by their SMILES. The source made the active and inactive calls. No cut-off for these calls is given here.

The assay concerns MCF7. Nature of the assay: Induction of apoptosis in human MCF7 cells assessed as caspase 7 cleavage at 8.27 uM after 48 hrs by Western blot analysis. The format is functional, cell-based.

With `C[C@@H]1CC[C@@]2(OC1)O[C@H]1C[C@H]3[C@@H]4CC[C@H]5C[C@@H](O[C@@H]6O[C@H](CO)[C@H](O[C@@H]7O[C@H](CO)[C@@H](O)[C@H](O[C@@H]8OC[C@@H](O)[C@H](O)[C@H]8O)[C@H]7O[C@@H]7O[C@H](CO)[C@@H](O)[C@H](O)[C@H]7O)[C@H](O)[C@H]6O)CC[C@]5(C)[C@H]4CC[C@]3(C)[C@H]1[C@@H]2C` [DEGALACTOTIGONIN], the result was Active.
